From patent US20090259043A1, “TRICYCLIC CYTOPROTECTIVE COMPOUNDS” (HUNTER-FLEMING LIMITED, priority 2005, published 2009)

Columns and labels:
[1] = test system: organotypic hippocampal slice cultures; experiment: Neuroprotection against hypoxia in organotypic hippocampal slice cultures (PI fluorescence in CA1); assay type: cell-based, Wistar rat; conditions: vs control (hypoxia only = 100% damage); 180 min hypoxia; compound present 45 min pre-hypoxia, during and 24 h post-hypoxia; PI fluorescence area in CA1
Method: Organotypic hippocampal slice cultures were prepared using the basic method of Pringle et al [Brain Res. 755, 36-46 (1997)] modified as follows:
Wistar rat pups (8-11 days old) were decapitated and the hippocampus rapidly dissected into ice-cold Gey's balanced salt solution supplemented with 4.5 mg/ml glucose. Slices were separated and plated onto Millicell CM culture inserts (4 per well) and maintained at 37° C./5% CO2 for 14 days. Maintenance medium consisted of 25% heat-inactivated horse serum, 25% Hank's balanced salt solution (HBSS) and 50% minimum essential medium with added Earle's salts (MEM) supplemented with 1 mM glutamine and 4.5 mg/ml glucose. Medium was changed every 3-4 days.
Experimental hypoxia was performed as described previously (Pringle et al., Stroke 27, 21-24 (1996)& Brain Res. 755, 36-46 (1997)]. Briefly, cultures were transferred to serum free medium (SFM-75% MEM, 25% HBSS supplemented with 1 mM glutamine and 4.5 mg/ml glucose) containing 5 μg/ml of the fluorescent exclusion dye propidium iodide (PI). Cultures were allowed to equilibrate in SFM for 60 minutes prior to imaging. PI fluorescence was detected using a Leica DMIL inverted microscope fitted with a rhodamine filter set. Any cultures in which PI fluorescence was detected at this stage were excluded from further study. Hypoxia was induced by transferring cultures to SFM (+PI) which had been saturated with 95% N2/5% CO2. Culture plates (without lids) were then sealed into an airtight chamber in which the atmosphere was saturated with 95% N2/5% CO2 by continuously blowing through gas at 10 L/minute for ten minutes before being sealed and placed in the incubator for 170 minutes (total time of hypoxia was therefore 180 minutes). At the end of the hypoxic period cultures were returned to normoxic SFM containing PI and placed back in the incubator for 24 hours.
Neuronal damage was assessed using ImageJ running on a PC. Images were captured using a CCD camera and saved for offline analysis. Light transmission images were captured prior to the addition of drugs, and PI fluorescence images recorded at the end of the 24-hour post-hypoxia recovery period. The area of the CA1 sub-region was determined from the transmission image. The area of PI fluorescence in the CA1 was measured using the threshold function on ImageJ, and neuronal damage expressed as the percentage of the CA1 in which PI fluorescence was detected above background.
Unpaired Student's t-tests were employed to ascertain statistical significance.
A series of compounds were examined for possible neuroprotection against hypoxia in organotypic hippocampal slice cultures. Compounds No. 4, 6, 7, 8, 10, 14, 15, 16, 17, 20, 21, 22 and 23 were dissolved in DMSO to a concentration of 1 mg/ml.
7β-hydroxy-epiandrosterone (7β-OH EPIA), a neuroprotective compound, at 100 nM concentrations, was employed as a positive control. A stock solution of 1 mg/ml was dissolved in ethanol. Final dilutions were made in SFM.
The efficacy of all compounds was assessed using a pre-during and post-hypoxia paradigm—compounds were present in the medium 45 minutes pre-hypoxia, the 3 hours of hypoxia and 24 hours post-hypoxia.

melting point	Structure (SMILES)	% damage in hypoxia model with compound [1]
	O=C(O)c1ccc2[nH]c3c(c2c1)CCCC3=O [Compound No. 14, 1-Oxo-2,3,4,9-tetrahydro-1H-carbazole-6-carboxylic acid]	53%
228 to 230 °C	Cc1ccc(C)c2c3c([nH]c12)CC(C(=O)O)CC3 (stereo not drawn)	
158 to 161 °C	Cc1ccc(C)c2c3c([nH]c12)CCC(O)C3 (stereo not drawn)	
128 to 130 °C	COc1ccc2[nH]c3c(c2c1)CCC3 [Compound No. 17, 7-Methoxy-1,2,3,4-tetrahydrocyclopenta[b]indole]	35%
173 to 175 °C (dec.)	O/N=C1\CCc2[nH]c3ccccc3c2C1 [Compound No. 21, (3E)-1,2,4,9-Tetrahydro-3H-carbazol-3-one oxime]	40%
	O=C1CCc2[nH]c3ccccc3c21 [Compound No. 8, 3,4-dihydrocyclopenta[b]indol-1 (2H)-one]	59%
	O=C1CCc2[nH]c3ccccc3c2C1 [Compound No. 7, 1,2,4,9-Tetrahydro-3H-carbazol-3-one]	70%
	c1ccc2c3c([nH]c2c1)CCC1(C3)OCCO1 [Compound No. 6, 1,2,4,9-Tetrahydro-spiro[carbazole-3,2′-[1,3-dioxolane]]	63%
	OC1CCc2[nH]c3ccccc3c2C1 (stereo not drawn) [Compound No. 4, 2,3,4,9-Tetrahydro-1H-carbazol-3-ol]	58%
	COc1ccc2[nH]c3c(c2c1)CCCC3 [compound 16, Methyl 2,3,4,9-tetrahydro-1H-carbazol-6-yl ether]	60%
	O/N=C1\CCCc2[nH]c3ccccc3c21 [Compound No. 20, (4E)-1,2,3,9-Tetrahydro-4H-carbazol-4-one oxime]	54%
283 to 286 °C (dec.)	COc1ccc2[nH]c3c(c2c1)CS(=O)(=O)CC3 [Compound No. 12, 8-Methoxy-1,3,4,5-tetrahydrothiopyrano[43-b]indole 2,2-dioxide]	
270 to 274 °C	O=C(O)c1ccc2[nH]c3c(c2c1)CCC3 [Compound No. 18, 1,2,3,4-Tetrahydrocyclopenta[b]indole-7-carboxylic acid]	
	COc1ccc2[nH]c3c(c2c1)CC(=O)CC3 [compound 23, 6-Methoxy-1,2,4,9-tetrahydro-3H-carbazol-3-one]	57%
	COc1ccc2[nH]c3c(c2c1)CCC(C(=O)O)C3 (stereo not drawn) [Compound No. 15, 6-Methoxy-2,3,4,9-tetrahydro-11H-carbazole-2-carboxylic acid]	65%
192 to 195 °C	Cc1ccc2c3c([nH]c2c1C)CCC(O)C3 (stereo not drawn) [Compound No. 10, 7,8-Dimethyl-2,3,4,9-tetrahydro-1H-carbazol-3-ol]	76%

Structure (SMILES)	melting point	% damage in hypoxia model with compound [1]
COc1ccc2[nH]c3c(c2c1)CC1(CC3)OCCO1 [Compound No. 22]	168 to 169 °C	75%
